Laboratory results published in publication PMC5463454 (Cancer discovery, 2016).

How the values were obtained:
[1] = Phase I safety and tolerability
[2] = system: target lesions of metastatic breast cancer; assay: [18F]FDG-PET metabolic response; assay type: in vivo, human; conditions: 600 mg
protein kinase A = conditions: cited from earlier work
[3] = system: colon cancer cell line HCT116 (KRAS G13D, PIK3CA H1047R); assay: Xenograft growth; assay type: in vivo, mice; conditions: KRAS G13D and PIK3CA H1047R

CC(C)NC[C@@H](C(=O)N1CCN(c2ncnc3c2[C@H](C)C[C@H]3O)CC1)c1ccc(Cl)cc1 [Ipatasertib]
maximum tolerated dose (MTD) ([1]; PO QD, 21/7 dosing schedule): 600 mg | grade 4 AEs or deaths related to ipatasertib ([1]; all doses): no grade 4 AEs or deaths | metabolic PET response in one patient with MBC with AKT1 E17K mutation ([2]; HER2-negative MBC): complete metabolic PET response | patients with target lesion metabolic PET response (SUVmax decrease ≥20%) ([2]; MBC, cycle 1, 8 of 9 evaluable): 89% | selectivity over protein kinase A (protein kinase A): greater than 600 fold | tumor growth in vivo [3]: does not suppress the growth | tumor growth in vivo ([3]; listed as ipatasertib): less effective in suppressing the growth
